Data from US11458138B2 (Novartis AG, priority 2017, dated 2022).

Experiments:
LATS1 = LATS1 (Homo sapiens (Human), UniProt O95835); experiment: LATS1 biochemical assay (Table 1A, Compound Examples 1-290; method in the earlier part)
[1] = tested on: YAP nuclear translocation in HaCaT cells; experiment: YAP Translocation Assay (HaCaT Cells); format: cell-based, human; conditions: Homo sapiens, 24 hours
Description: HaCaT cells were suspended at 0.4×10^6 cells/ml in DMEM+10% FBS with penicillin-streptomycin-glutamine. 50 μl of cells were dispensed into 384-well clear bottom assay plates (20,000 cells/well), and incubated overnight at 37° C. 100 nL test compound was transferred into the assay wells containing HaCaT cells using ECHO (Labcyte). After 24 hours incubation at 37° C., 7 μL of 32% PFA was dispensed into each well and incubated for 45 minutes at room temperature. Plates were washed 3 times with PBS, leaving 20 μL of PBS per well, then treated with 0.1% Triton and 1.5% BSA in PBS for 45 minutes at room temperature. Plates were washed for 5 times with PBS, leaving 20 μL of PBS per well. […] Plates were further washed 3 time with PBS, sealed and imaged on the high-content Opera imaging system (PerkinElmer).

LATS1, sequence (O95835 whole entry, looked up): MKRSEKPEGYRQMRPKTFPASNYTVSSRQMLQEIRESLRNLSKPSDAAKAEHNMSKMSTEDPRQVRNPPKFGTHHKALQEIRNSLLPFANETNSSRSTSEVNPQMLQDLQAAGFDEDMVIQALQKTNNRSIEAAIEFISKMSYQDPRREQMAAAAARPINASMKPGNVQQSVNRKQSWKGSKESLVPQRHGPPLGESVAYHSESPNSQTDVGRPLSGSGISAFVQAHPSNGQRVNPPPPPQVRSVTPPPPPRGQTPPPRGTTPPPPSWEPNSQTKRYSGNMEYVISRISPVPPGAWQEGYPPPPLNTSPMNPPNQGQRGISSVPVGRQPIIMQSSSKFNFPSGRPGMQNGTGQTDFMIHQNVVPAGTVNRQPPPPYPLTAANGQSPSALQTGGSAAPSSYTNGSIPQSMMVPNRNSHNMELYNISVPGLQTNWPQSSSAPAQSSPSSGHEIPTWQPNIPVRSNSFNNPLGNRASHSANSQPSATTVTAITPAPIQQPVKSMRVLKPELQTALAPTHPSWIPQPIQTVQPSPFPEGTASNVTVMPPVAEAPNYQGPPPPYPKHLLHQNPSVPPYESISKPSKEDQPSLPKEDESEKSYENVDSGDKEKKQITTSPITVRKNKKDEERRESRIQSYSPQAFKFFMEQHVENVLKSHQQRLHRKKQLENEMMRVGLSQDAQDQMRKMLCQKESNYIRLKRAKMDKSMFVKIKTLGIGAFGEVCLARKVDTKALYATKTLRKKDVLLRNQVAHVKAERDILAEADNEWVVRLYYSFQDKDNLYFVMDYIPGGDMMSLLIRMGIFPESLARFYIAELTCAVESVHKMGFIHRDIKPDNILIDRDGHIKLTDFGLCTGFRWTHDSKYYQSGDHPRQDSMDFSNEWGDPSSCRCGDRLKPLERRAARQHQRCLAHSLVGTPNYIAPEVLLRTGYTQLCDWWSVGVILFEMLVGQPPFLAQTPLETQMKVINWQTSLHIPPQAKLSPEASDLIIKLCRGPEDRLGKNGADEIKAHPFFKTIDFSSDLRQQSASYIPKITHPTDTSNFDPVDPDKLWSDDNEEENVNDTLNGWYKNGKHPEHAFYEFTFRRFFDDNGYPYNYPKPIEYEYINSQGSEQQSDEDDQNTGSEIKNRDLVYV
LATS1, sequence (Q7L9L4 whole entry partner, looked up): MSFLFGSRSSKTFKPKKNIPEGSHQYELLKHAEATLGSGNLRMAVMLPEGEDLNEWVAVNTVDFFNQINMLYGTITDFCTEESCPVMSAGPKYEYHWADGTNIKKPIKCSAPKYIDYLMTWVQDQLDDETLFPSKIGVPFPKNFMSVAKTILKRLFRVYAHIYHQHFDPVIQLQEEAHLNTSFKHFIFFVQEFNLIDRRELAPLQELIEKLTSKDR

| Structure (SMILES) | IC50 (LATS1) [nM] | EC50 [1] [nM] |
| --- | --- | --- |
| CC(C)(COCC(=O)O)Nc1nc(-c2ccncc2)nc2cnccc12 [Example 25, 2-(2-methyl-2-{[2-(pyridin-4-yl)pyrido[3,4-d]pyrimidin-4-yl]amino}propoxy)acetic acid] | 30 | > 20000 |
| OCCC(Nc1nc(-c2ccncc2)nc2cnccc12)C(F)(F)F (stereo not drawn) [Example 27, 4,4,4-trifluoro-3-{[2-(pyridin-4-yl)pyrido[3,4-d]pyrimidin-4-yl]amino}butan-1-ol] | 35 | > 14400 |
| CC(C)(CS(C)(=O)=O)Nc1nc(-c2ccncc2)nc2cnccc12 [Example 28, N-(1-methanesulfonyl-2-methylpropan-2-yl)-2-(pyridin-4-yl)pyrido[3,4-d]pyrimidin-4-amine] | 36 | > 20000 |
| C[C@](Nc1nc(-c2ccncc2)nc2cnccc12)(C(=O)O)C(F)(F)F [Example 29, (2S)-3,3,3-trifluoro-2-methyl-2-{[2-(pyridin-4-yl)pyrido[3,4-d]pyrimidin-4-yl]amino}propanoic acid] | 36 | > 20000 |
| C[C@@](Nc1nc(-c2ccncc2)nc2cnccc12)(C(=O)O)C(F)(F)F [Example 31, (2R)-3,3,3-trifluoro-2-methyl-2-{[2-(pyridin-4-yl)pyrido[3,4-d]pyrimidin-4-yl]amino}propanoic acid] | 41 | > 20000 |
| CC(C)(Nc1nc(-c2ccncc2)nc2cnccc12)C(=O)O [Example 34, 2-methyl-2-{[2-(pyridin-4-yl)pyrido[3,4-d]pyrimidin-4-yl]amino}propanoic acid] | 95 | > 20000 |
| OCCOCCNc1nc(-c2ccncc2)nc2cnccc12 [Example 35, 2-(2-{[2-(pyridin-4-yl)pyrido[3,4-d]pyrimidin-4-yl]amino}ethoxy)ethan-1-ol] | 118 | > 20000 |
| OCC(CO)(CO)Nc1nc(-c2ccncc2)nc2cnccc12 [Example 36, 2-(hydroxymethyl)-2-{[2-(pyridin-4-yl)pyrido[3,4-d]pyrimidin-4-yl]amino}propane-1,3-diol] | 199 | > 20000 |
| CC(C)(CC(=O)O)NC(=O)CC(C)(C)Nc1nc(-c2ccncc2)nc2cnccc12 [Example 37, 3-methyl-3-(3-methyl-3-{[2-(pyridin-4-yl)pyrido[3,4-d]pyrimidin-4-yl]amino}butanamido) butanoic acid] | 233 | > 6670 |
| CN(C)C1(CNc2nc(-c3ccncc3)nc3cnccc23)CCOCC1 [Example 39, N-{[4-(dimethylamino)oxan-4-yl]methyl}-2-(pyridin-4-yl)pyrido[3,4-d]pyrimidin-4-amine] | 244 | > 11600 |
| CC(C)(Nc1nc(-c2ccncc2)nc2cnccc12)C12CC3CC(CC(C3)C1)C2 [Example 42, N-[2-(adamantan-1-yl)propan-2-yl]-2-(pyridin-4-yl)pyrido[3,4-d]pyrimidin-4-amine] | 711 | 11600 |
| CC(C)C(=O)Nc1nc(-c2ccncc2)nc2cnccc12 [Example 43, 2-methyl-N-[2-(pyridin-4-yl)pyrido[3,4-d]pyrimidin-4-yl]propanamide] | > 1970 | > 20000 |
| CC(C)S(=O)(=O)Nc1nc(-c2ccncc2)nc2cnccc12 [Example 45, N-[2-(pyridin-4-yl)pyrido[3,4-d]pyrimidin-4-yl]propane-2-sulfonamide] | > 2500 | > 20000 |
| CN[C@@H]1CCCC[C@H]1N(C)c1nc(-c2ccncc2)nc2cnccc12 [Example 53, (1R,2R)-1-N,2-N-dimethyl-1-N-[2-(pyridin-4-yl)pyrido[3,4-d]pyrimidin-4-yl]cyclohexane-1,2-diamine] | 40 | > 20000 |
| COC(=O)[C@H]1C[C@@H](Nc2nc(-c3ccncc3)nc3cnccc23)C1 [Example 54, methyl (1s,3s)-3-{[2-(pyridin-4-yl)pyrido[3,4-d]pyrimidin-4-yl]amino}cyclobutane-1-carboxylate] | 78 | > 20000 |
| O=C(O)C1CC(Nc2nc(-c3ccncc3)nc3cnccc23)C1 (stereo not drawn) [Example 57, (1s,3s)-3-{[2-(pyridin-4-yl)pyrido[3,4-d]pyrimidin-4-yl]amino}cyclobutane-1-carboxylic acid] | 1440 | > 20000 |
| O=C(O)CCCNc1nc(-c2ccncc2)nc2cnccc12 [Example 97, 4-{[2-(pyridin-4-yl)pyrido[3,4-d]pyrimidin-4-yl]amino}butanoic acid] | – | > 20000 |

Further lines, with some results ahead:

| IC50 (LATS1) [nM] | Structure (SMILES) | EC50 [1] [nM] |
| --- | --- | --- |
| 1 | CC1(Nc2nc(-c3ccncc3)nc3cnccc23)CCC1 [Example 60, N-(1-methylcyclobutyl)-2-(pyridin-4-yl)pyrido[3,4-d]pyrimidin-4-amine] | 440 |
| 2 | CC(CO)(Nc1nc(-c2ccncc2)nc2cnccc12)C(F)(F)F (stereo not drawn) [Example 67, 3,3,3-trifluoro-2-methyl-2-{[2-(pyridin-4-yl)pyrido[3,4-d]pyrimidin-4-yl]amino}propan-1-ol] | 685 |
| 126 | Cc1ccc(Nc2nc(-c3ccncc3)nc3cnccc23)cc1 [Example 90, N-(4-methylphenyl)-2-(pyridin-4-yl)pyrido[3,4-d]pyrimidin-4-amine] | > 20000 |
| 304 | c1ccc(Nc2nc(-c3ccncc3)nc3cnccc23)cc1 [Example 92, N-phenyl-2-(pyridin-4-yl)pyrido[3,4-d]pyrimidin-4-amine] | > 20000 |
| 809 | Cc1cccc(Nc2nc(-c3ccncc3)nc3cnccc23)c1 [Example 93, N-(3-methylphenyl)-2-(pyridin-4-yl)pyrido[3,4-d]pyrimidin-4-amine] | > 20000 |
| 1150 | O=C(O)CCCCCNc1nc(-c2ccncc2)nc2cnccc12 [Example 94, 6-{[2-(pyridin-4-yl)pyrido[3,4-d]pyrimidin-4-yl]amino}hexanoic acid] | > 20000 |
| > 1700 | Fc1ccc(Nc2nc(-c3ccncc3)nc3cnccc23)cc1 [Example 96, N-(4-fluorophenyl)-2-(pyridin-4-yl)pyrido[3,4-d]pyrimidin-4-amine] | > 20000 |
| 1350 | CC(Nc1nc(-c2ccncc2)nc2cnccc12)c1ccccc1 (stereo not drawn) [Example 98, N-(1-phenylethyl)-2-(pyridin-4-yl)pyrido[3,4-d]pyrimidin-4-amine] | – |
| 126 | COC(=O)CC1(Nc2nc(-c3ccncc3)nc3cnccc23)CC1 [Example 102, methyl 2-(1-{[2-(pyridin-4-yl)pyrido[3,4-d]pyrimidin-4-yl]amino}cyclopropyl)acetate] | – |
| 235 | Cc1c(-c2nc(NC(C)(C)C)c3ccncc3n2)c2cccnc2n1S(=O)(=O)c1ccccc1 [Example 113, 2-[1-(benzenesulfonyl)-2-methyl-1H-pyrrolo[2,3-b]pyridin-3-yl]-N-tert-butylpyrido[3,4-d]pyrimidin-4-amine] | > 20000 |
| 9 | CC(C)(O)CC(C)(C)Nc1nc(-c2c[nH]nc2C(F)(F)F)nc2cnccc12 [Example 119, 2,4-dimethyl-4-({2-[3-(trifluoromethyl)-1H-pyrazol-4-yl]pyrido[3,4-d]pyrimidin-4-yl}amino)pentan-2-ol] | 5180 |
| 14 | CC(C)(O)COCC(C)(C)Nc1nc(-c2c[nH]nc2C(F)(F)F)nc2cnccc12 [Example 121, 2-methyl-1-[2-methyl-2-({2-[3-(trifluoromethyl)-1H-pyrazol-4-yl]pyrido[3,4-d]pyrimidin-4-yl}amino)propoxy]propan-2-ol] | 8170 |
| 23 | CC(C)(O)CC(C)(C)Nc1nc(-c2ccncc2Cl)nc2cnccc12 [Example 125, 4-{[2-(3-chloropyridin-4-yl)pyrido[3,4-d]pyrimidin-4-yl]amino}-2,4-dimethylpentan-2-ol] | 8000 |
| 53 | Clc1cnccc1-c1nc(NC2CCCC2)c2ccncc2n1 [Example 126, 2-(3-chloropyridin-4-yl)-N-cyclopentylpyrido[3,4-d]pyrimidin-4-amine] | > 20000 |
| 4270 | CC1(Nc2nc(-c3ccnc(C(F)(F)F)c3)nc3cnccc23)CC1 [Example 150, N-(1-methylcyclopropyl)-2-[2-(trifluoromethyl)pyridin-4-yl]pyrido[3,4-d]pyrimidin-4-amine] | – |
| > 10000 | CC1(Nc2nc(-c3ccnc(C#N)c3)nc3cnccc23)CC1 [Example 151, 4-{4-[(1-methylcyclopropyl)amino]pyrido[3,4-d]pyrimidin-2-yl}pyridine-2-carbonitrile] | – |
| 98 | CN(c1nc(-c2ccnn2C)nc2cnccc12)C1(C)CC1 [Example 169, N-methyl-2-(1-methyl-1H-pyrazol-5-yl)-N-(1-methylcyclopropyl)pyrido[3,4-d]pyrimidin-4-amine] | – |
| 189 | OCC1(Nc2nc(-c3cn[nH]c3)nc3cnccc23)CCC1 [Example 191, (1-{[2-(1H-pyrazol-4-yl)pyrido[3,4-d]pyrimidin-4-yl]amino}cyclobutyl)methanol] | – |
| > 10000 | CC(Nc1nc(-c2ccnn2C)nc2cnccc12)c1ccncc1 (stereo not drawn) [Example 193, 2-(1-methyl-1H-pyrazol-5-yl)-N-[1-(pyridin-4-yl)ethyl]pyrido[3,4-d]pyrimidin-4-amine] | – |
| > 10000 | CCn1cc(-c2nc(NCC(C)C)c3ccncc3n2)cn1 [Example 195, 2-(1-ethyl-1H-pyrazol-4-yl)-N-(2-methylpropyl)pyrido[3,4-d]pyrimidin-4-amine] | – |
| 23 | CC(C)(CN)Nc1nc(-c2cn[nH]c2)nc2cnccc12 [Example 197, N-(1-amino-2-methylpropan-2-yl)-2-(1H-pyrazol-4-yl)pyrido[3,4-d]pyrimidin-4-amine] | – |
